The source of these data is patent publication US20160075653A1, “NEMATICIDAL N-(PHENYLCYCLOALKYL)CARBOXAMIDES AND N-(PHENYLCYCLOALKYL)THIOCARBOXAMIDES” (BAYER CROPSCIENCE AKTIENGESELLSCHAFT, priority 2013, published 2016).

The nature of one data set: Measurement of log P values by HPLC on reversed phase columns (methods [a] pH 2.3, [b] pH 2.7, [c] pH 7.8). It is filed as physicochemical. Conditions: HPLC on reversed phase column, method [b], pH 2.7. The method in brief: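 Determined per EEC Directive 79/831 Annex V.A8 by reversed-phase HPLC, 10-95% acetonitrile gradient: [a] pH 2.3, 0.1% phosphoric acid; [b] LC-MS, pH 2.7, 0.1% formic acid; [c] LC-MS, pH 7.8, 0.001 molar ammonium hydrogen carbonate. Calibrated with C3-C16 alkan-2-ones by retention-time interpolation.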
Turning to `O=C(N[C@@H]1CC[C@H]1c1ccc(Cl)cc1C(F)(F)F)c1nccnc1Cl` (relative stereo) [Example 716], the logP is 3.56^[b]. As for `O=C(N[C@@H]1CC[C@H]1c1cccc(F)c1C(F)(F)F)c1ccc(Cl)cc1Cl` (relative stereo) [Example 593], the logP was 3.50^[b].

Consider `O=C(N[C@@H]1CC[C@H]1c1ccc(Cl)cc1C(F)(F)F)c1ccc(Cl)cc1Cl` (relative stereo) [Example 665], for which the logP was 4.55^[b]. Take `O=C(N[C@@H]1CC[C@H]1c1cccc(F)c1C(F)(F)F)c1ccccc1[N+](=O)[O-]` (relative stereo) [Example 629]: the logP is 3.18^[b].

On to `O=C(N[C@@H]1CC[C@@H]1c1ccc(Cl)cc1C(F)(F)F)c1cccnc1` (relative stereo) [Example 714], for which the logP is 2.50^[b].

Still in this data set, the particulars now being: HPLC on reversed phase columns, method [b], pH 2.7.
Consider `Cc1nn(C)c(F)c1C(=O)N[C@@H]1C[C@H]1c1ccccc1` (relative stereo) [Example 42], for which the logP is 1.99^[b]. The same measure, in the same setting: the result for `O=C(N[C@@H]1CCC[C@@H]1c1ccc(F)c(F)c1)c1ccc(C(F)(F)F)nc1Cl` (relative stereo) [Example 124] reads 3.68^[b]. For `Cc1nn(C)c(F)c1C(=O)NC1CC1c1ccccc1` (stereo not drawn) [Example 5], the logP was 2.00^[b]. With `N#Cc1ccccc1C(=O)N[C@@H]1CCC[C@@H]1c1ccc(F)c(F)c1` (relative stereo) [Example 73], the logP was 3.04^[b]. As to `O=C(NC1CCC1c1ccc(Cl)cc1C(F)(F)F)c1cccnc1C(F)(F)F` (stereo not drawn) [Example 720], the logP was 3.60^[b]. With `Nc1nc(C(F)(F)F)c(C(=O)N[C@@H]2CCC[C@@H]2c2ccc(F)c(F)c2)s1` (relative stereo) [Example 97], the logP is 2.82^[b]. `O=C(NC1CC1(F)c1ccc(Cl)cc1)c1ccccc1C(F)(F)F` (stereo not drawn) [Example 755]: the logP is 3.03^[b]. Turning to `Cc1nn(C)cc1C(=O)NC1CC1c1ccc(Br)cc1` (stereo not drawn) [Example 23], the logP is 3.20^[b].

`Cc1ccsc1C(=O)N[C@@H]1CCC[C@@H]1c1ccc(F)c(F)c1` (relative stereo) [Example 70]: the logP was 3.39^[b]. In the case of `O=C(N[C@@H]1CCC[C@H]1c1ccc(F)c(F)c1)c1ccncc1F` (relative stereo) [Example 107], the logP is 2.62^[b].

With `O=C(NC1CCC1c1ccc(Cl)cc1C(F)(F)F)c1cccnc1C(F)(F)F` (stereo not drawn) [Example 721], the logP was 3.36^[b]. With `O=C(NC1CC1c1ccccc1)c1ccncc1` (stereo not drawn) [Example 39], the logP was 1.30^[b]. Same read-out and setting: the figure for `O=C(N[C@@H]1C[C@H]1c1ccccc1)c1ccccc1Cl` (relative stereo) [Example 46] is 2.68^[b]; for `O=C(N[C@@H]1C[C@H]1c1ccccc1)c1ccccc1Br` (relative stereo) [Example 45] it is 2.79^[b]. Consider `CCCc1nn(C)cc1C(=O)N[C@@H]1CCC[C@@H]1c1ccc(F)c(F)c1` (relative stereo) [Example 81], for which the logP is 2.80^[b].

Turning to `CCn1nc(C)c(C(=O)N[C@@H]2CCC[C@@H]2c2ccc(F)c(F)c2)c1F` (relative stereo) [Example 84], the logP is 2.92^[b].

Staying with this data set, now noted: HPLC reversed phase, method [b] (pH 2.7).
Regarding `O=C(NC1CC1c1ccc(Cl)cc1)c1c(F)cccc1Cl` (stereo not drawn) [Example 463], the logP is 2.83^[b]. Regarding `O=C(NC1CCCCCC1c1ccccc1C(F)(F)F)c1ccccc1I` (stereo not drawn) [Example 419], the logP is 4.59^[b].

`Cn1cc(C(=O)NC2CCC2c2ccc(Cl)cc2Cl)c(C(F)F)n1` (stereo not drawn) [Example 468]: the logP was 3.26^[b]. On to `O=C(NC1CCC1c1ccc(Cl)cc1Cl)c1ccccc1` (stereo not drawn) [Example 450], for which the logP is 3.75^[b]. Same read-out and setting: the figure for `O=C(NC1CCCCC1c1ccc(Cl)cc1)c1ccccc1Cl` (stereo not drawn) [Example 371] is 3.65^[b]. The same measure, in the same setting: the figure for `O=C(NC1CCCCC1c1ccccc1Br)c1cccnc1C(F)(F)F` (stereo not drawn) [Example 403] is 3.53^[b]. `O=C(NC1CCC1c1ccccc1C(F)(F)F)c1ncccc1Cl` (stereo not drawn) [Example 458]: the logP is 3.22^[b]. In the case of `O=C(N[C@@H]1CC[C@H]1c1ccccc1Cl)c1ccccc1Br` (relative stereo) [Example 244], the logP is 3.33^[b]. On the same count and under the same terms, the figure for `O=C(NC1CCC1c1c(F)cccc1F)c1ccc(Cl)cc1` (stereo not drawn) [Example 444] is 3.20^[b]; for `O=C(N[C@@H]1CC[C@H]1c1ccc(F)cc1C(F)(F)F)c1nccnc1Cl` (relative stereo) [Example 525] it is 3.16^[b]; for `Cc1nc(C)c(C(=O)NC2CCCCC2c2ccc(Cl)cc2Cl)s1` (stereo not drawn) [Example 410] it is 3.88^[b].

Consider `Cc1nn(C)cc1C(=O)NC1CCCCC1c1ccccc1C(F)(F)F` (stereo not drawn) [Example 384], for which the logP is 2.87^[b]. As for `O=C(N[C@@H]1CC[C@H]1c1ccc(F)cc1C(F)(F)F)c1ccccc1[N+](=O)[O-]` (relative stereo) [Example 521], the logP is 3.10^[b]. With `O=C(NC1CCC1c1ccc(F)cc1C(F)(F)F)c1ncc(C(F)(F)F)cc1Cl` (stereo not drawn) [Example 480], the logP was 4.23^[b].

For `O=C(NC1CCCCC1c1ccccc1Br)c1cccnc1Cl` (stereo not drawn) [Example 413], the logP is 3.25^[b]. As for `O=C(N[C@@H]1CCC[C@@H]1c1ccccc1F)c1ccccc1Br` (relative stereo) [Example 319], the logP was 3.18^[b]. For `O=C(N[C@@H]1CCC[C@@H]1c1ccccc1F)c1ccccc1Cl` (relative stereo) [Example 316], the logP is 3.12^[b]. On the same count and under the same terms, the figure for `O=C(NC1CC1c1ccc(Cl)cc1)c1cccnc1Cl` (stereo not drawn) [Compound 274] is 2.14^[b]. With `CC(C)Oc1ccc([C@H]2CCC[C@H]2NC(=O)c2ccccc2Cl)cc1` (relative stereo) [Example 317], the logP was 3.74^[b].

`O=C(N[C@@H]1CC[C@@H]1c1c(F)cccc1F)c1ncccc1Cl` (relative stereo) [Compound 438]: the logP is 2.73^[b]. For `O=C(NC1CCCCC1c1ccccc1Cl)c1cccnc1C(F)(F)F` (stereo not drawn) [Example 378], the logP is 3.45^[b]. Still for that read-out and setting: the result for `O=C(N[C@@H]1CC[C@@H]1c1ccc(F)cc1C(F)(F)F)c1ccc(Cl)cc1` (relative stereo) [Example 508] reads 3.62^[b]; that for `O=C(NC1CCCC1c1c(F)cccc1F)c1cccnc1Cl` (stereo not drawn) [Example 321], 2.51^[b].

As to `O=C(N[C@@H]1CC[C@H]1c1ccc(Cl)cc1Cl)c1ccc(Cl)cc1Cl` (relative stereo) [Example 265], the logP is 4.48^[b].

For `O=C(N[C@@H]1CC[C@@H]1c1ccc(Cl)cc1Cl)c1ccc(Cl)cc1Cl` (relative stereo) [Example 266], the logP is 4.16^[b]. As to `O=C(N[C@@H]1CCC[C@@H]1c1ccccc1F)c1nccnc1Cl` (relative stereo) [Example 336], the logP is 2.61^[b]. With `O=C(N[C@@H]1CCC[C@@H]1c1ccc(C(F)(F)F)cc1)c1cccnc1` (relative stereo) [Example 298], the logP is 2.46^[b]. On to `O=C(NC1CC1c1ccc(Cl)cc1)c1ccccc1[N+](=O)[O-]` (stereo not drawn) [Example 467], for which the logP was 2.59^[b]. `O=C(NC1CCCCC1c1ccccc1C(F)(F)F)c1cccnc1C(F)(F)F` (stereo not drawn) [Example 385]: the logP was 3.61^[b].

The same data set, now with this note: HPLC reversed phase, method [c] pH 7.8.
For `O=C(NC1CC1c1ccc(Cl)cc1)c1c(F)cccc1Cl` (stereo not drawn) [Example 463], the logP is 2.75^[c];. With `O=C(N[C@@H]1CCC[C@@H]1c1ccccc1F)c1ccccc1Br` (relative stereo) [Example 319], the logP was 3.14^[c];. On the same count and under the same terms, the figure for `O=C(N[C@@H]1CCC[C@@H]1c1ccccc1F)c1ccccc1Cl` (relative stereo) [Example 316] is 3.08^[c];; for `O=C(NC1CC1c1ccc(Cl)cc1)c1cccnc1Cl` (stereo not drawn) [Compound 274] it is 2.10^[c];; for `CC(C)Oc1ccc([C@H]2CCC[C@H]2NC(=O)c2ccccc2Cl)cc1` (relative stereo) [Example 317] it is 3.73^[c];.

Turning to `O=C(N[C@@H]1CCC[C@@H]1c1ccccc1F)c1nccnc1Cl` (relative stereo) [Example 336], the logP is 2.55^[c];.

`O=C(N[C@@H]1CCC[C@@H]1c1ccc(C(F)(F)F)cc1)c1cccnc1` (relative stereo) [Example 298]: the logP was 2.46^[c];.

As for `O=C(NC1CC1c1ccc(Cl)cc1)c1ccccc1[N+](=O)[O-]` (stereo not drawn) [Example 467], the logP was 2.45^[c];.

The data set is the same for the next values; noted with them: method [b], HPLC reversed phase, pH 2.7.
Regarding `Cn1nc(C(F)F)c(C(=O)NC2CCCCC2c2ccccc2)c1F` (stereo not drawn) [Example 182], the logP is 3.29^[b]. Still for that read-out and setting: the figure for `Cc1nc(C(F)F)c(C(=O)N(C2CC2)C2CCCC2c2ccc(Cl)cc2Cl)s1` (stereo not drawn) [Example 173] is 4.85^[b]; for `Cn1nc(C(F)F)c(C(=O)NC2CC2c2cccc(F)c2)c1F` (stereo not drawn) [Example 187] it is 2.59^[b]; for `O=C(NC1CCC1c1c(F)cccc1F)c1ncc(C(F)(F)F)cc1Cl` (stereo not drawn) [Example 228] it is 3.61^[b]. `Cc1occc1C(=O)N[C@@H]1CCC[C@H]1c1ccc(F)c(F)c1` (relative stereo) [Example 133]: the logP is 3.17^[b].

With `O=C(NC1CC1c1ccc(Cl)cc1Cl)c1ccccc1F` (stereo not drawn) [Example 205], the logP was 3.66^[b]. With `Cn1nc(C(F)F)c(C(=O)N(C2CC2)C2CCCC2c2ccc(Cl)cc2Cl)c1F` (stereo not drawn) [Example 166], the logP is 4.67^[b]. As to `Cc1nc(C(F)F)c(C(=O)N(C2CC2)C2CCCCC2c2ccc(Cl)cc2Cl)s1` (stereo not drawn) [Example 170], the logP is 5.25^[b].

For the compound `Cn1cc(C(=O)NC2CC2c2ccccc2C(F)(F)F)c(C(F)F)n1` (stereo not drawn) [Example 234], the logP is 2.64^[b].

`Cc1nc(C(F)(F)F)c(C(=O)N(C2CC2)C2CCCCC2c2ccccc2)s1` (stereo not drawn) [Example 147]: the logP was 4.69^[b]. For `Cc1nn(C)c(F)c1C(=O)N(C1CC1)C1CCCCC1c1ccc(Cl)cc1Cl` (stereo not drawn) [Example 165], the logP is 4.59^[b]. For `O=C(NC1CC1c1ccc(Cl)cc1)c1sccc1I` (stereo not drawn) [Example 202], the logP is 3.56^[b].

Take `O=C(NC1CC1c1ccc(Cl)cc1)c1occc1Br` (stereo not drawn) [Example 204]: the logP is 3.04^[b].

The data set is the same for the next values; noted with them: method [c], HPLC reversed phase, pH 7.8.
As to `O=C(NC1CC1c1ccc(Cl)cc1Cl)c1ccccc1F` (stereo not drawn) [Example 205], the logP is 3.55^[c];. With `O=C(NC1CC1c1ccc(Cl)cc1)c1sccc1I` (stereo not drawn) [Example 202], the logP is 3.50^[c];.

Regarding `O=C(NC1CC1c1ccc(Cl)cc1)c1occc1Br` (stereo not drawn) [Example 204], the logP is 2.98^[c];.

The data set is the same for the next values; noted with them: reversed phase HPLC columns, pH 2.7, HPLC reversed phase, method [b] (pH 2.7); read-out: logP.
In the case of `O=C(N[C@@H]1CC[C@H]1c1ccccc1C(F)(F)F)c1ccccc1Cl` [Example 498], the chromatographic logP is 3.42.
